The text below walks through data of PMC6009895, “Screening assay for inhibitors of a recombinant Streptococcus pneumoniae UDP-glucose pyrophosphorylase” (Journal of Enzyme Inhibition and Medicinal Chemistry, 2017).

This test addresses T1, His6GalUSpn (UDP-glucose pyrophosphorylase, UDPG:PP, GalU) (Streptococcus pneumoniae, UniProt O86882).
T1 construct: complete galU gene amplified from plasmid pMMG2 into pET28a (NheI/BamHI; pETgalU), His6 tag before the protein, tag cut not mentioned; E. coli BL21(DE3), IMAC
Kind of test: malachite green Pi assay coupled to inorganic pyrophosphatase. The settings on record: 30 min preincubation at 37 °C with 7.5 mM compound; 7.5 mM UTP, 7.5 mM Glc-1P, 5 mM MgCl2, MOPS pH 8.0, 37 °C. The format is biochemical.

T1 sequence (O86882 entry or part of it): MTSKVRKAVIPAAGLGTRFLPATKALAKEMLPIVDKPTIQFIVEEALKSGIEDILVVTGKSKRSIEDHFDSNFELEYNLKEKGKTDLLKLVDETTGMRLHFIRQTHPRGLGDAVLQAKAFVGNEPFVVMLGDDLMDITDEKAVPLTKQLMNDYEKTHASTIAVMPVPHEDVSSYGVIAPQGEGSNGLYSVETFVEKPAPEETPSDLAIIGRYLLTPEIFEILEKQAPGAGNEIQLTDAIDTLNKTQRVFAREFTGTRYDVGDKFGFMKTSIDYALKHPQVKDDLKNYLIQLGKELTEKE

As to `Cc1cn([C@H]2C=C[C@@H](CO)O2)c(=O)[nH]c1=O` [stavudine], the “% inhibition at 7.5 mM” value was “nucleoside analogs: abacavir, decitabine stavudine and zidovudine”.
As to `Nc1nc(NC2CC2)c2ncn([C@H]3C=C[C@@H](CO)C3)c2n1` [abacavir], the “% inhibition at 7.5 mM” value is given as “inhibit S. pneumoniae UDP-glucose pyrophosphorylase, including compounds containing a purine base in their structure”.
For `Cc1cn([C@H]2C[C@H](N=[N+]=[N-])[C@@H](CO)O2)c(=O)[nH]c1=O` [zidovudine], the “% inhibition at 7.5 mM” value was “nucleoside analogs: abacavir, decitabine stavudine and zidovudine”.
